We go through 6 molecules from ChEMBL document CHEMBL4342483, “Codrug Approach for the Potential Treatment of EML4-ALK Positive Lung Cancer” (ACS Med Chem Lett, 2020).

Data set [1] relates to A549. Briefly: Cytotoxicity against ALK-negative human A549 cells harboring wild type PI3KCA and CDKN2A and KRAS mutations assessed as cell growth inhibition measured after 72 hrs by MTT assay. The following applies: A549, 72 h. Type of data set: functional. (Tetrazolium dyes change colour on reduction, which living cells bring about.)
In data set [2] the test system is A549. The data set can be described thus: Synergistic growth inhibition of ALK-negative human A549 cells assessed as combination index at compound:ceritinib concentration ratio of 1:1 and fractional effect of 0.96 in presence of ceritinib by Chou-Talalay method. Type of data set: functional.
For data set [3], the system named is A549. The data set can be described thus: Cytotoxicity against ALK-negative human A549 cells assessed as cell growth inhibition by Chou-Talalay method. Type of data set: functional.
Data set [4] is described as follows: Synergistic growth inhibition of EML4-ALK-positive human CCL185IG cells assessed as combination index at compound:ceritinib concentration ratio of 1:1 and fractional effect of 0.5 in presence of ceritinib by Chou-Talalay method. It counts as functional.
A short description of data set [5]: Synergistic growth inhibition of EML4-ALK-positive human CCL185IG cells assessed as combination index at compound:ceritinib concentration ratio of 1:1 and fractional effect of 0.76 in presence of ceritinib by Chou-Talalay method. It counts as functional.
Data set [6] is described as follows: Synergistic growth inhibition of EML4-ALK-positive human CCL185IG cells assessed as combination index at compound:ceritinib concentration ratio of 1:1 and fractional effect of 0.25 in presence of ceritinib by Chou-Talalay method. It counts as functional.
Data set [7] relates to A549. Briefly: Synergistic growth inhibition of ALK-negative human A549 cells assessed as combination index at compound:ceritinib concentration ratio of 1:1 and fractional effect of 0.5 in presence of ceritinib by Chou-Talalay method. It counts as functional.
The nature of data set [8]: Synergistic growth inhibition of EML4-ALK-positive human CCL185IG cells assessed as combination index at compound:ceritinib concentration ratio of 1:1 and fractional effect of 0.96 in presence of ceritinib by Chou-Talalay method. Type of data set: functional.
Data set [9] is described as follows: Cytotoxicity against EML4-ALK-positive human CCL185IG cells harboring wild type PI3KCA and CDKN2A and KRAS mutations assessed as cell growth inhibition measured after 72 hrs by MTT assay. It counts as functional.
Data set [10] concerns A549. Briefly: Synergistic growth inhibition of ALK-negative human A549 cells assessed as combination index at compound:ceritinib concentration ratio of 1:1 and fractional effect of 0.76 in presence of ceritinib by Chou-Talalay method. It counts as functional.
Data set [11] can be described thus: Cytotoxicity against EML4-ALK-positive human CCL185IG cells assessed as cell growth inhibition by Chou-Talalay method. It counts as functional.
The subject of data set [12] is A549. The data set can be described thus: Synergistic growth inhibition of ALK-negative human A549 cells assessed as combination index at compound:ceritinib concentration ratio of 1:1 and fractional effect of 0.25 in presence of ceritinib by Chou-Talalay method. Type of data set: functional.
In data set [13] the target is ALK tyrosine kinase receptor (Homo sapiens) (UniProt Q9UM73). The following applies: 500 nM.
Description: Inhibition of ALK-mediated STAT3 phosphorylation in EML4-ALK-positive human CCL185IG cells at 500 nM measured after 24 hrs by Western blot analysis
The target is the same in data set [14]. To be noted: 500 nM. This is another data set of the same source.
Description: Inhibition of ALK-mediated STAT3 phosphorylation in EML4-ALK-positive human CCL185IG cells at 500 nM measured after 24 hrs in presence of pictilisib by Western blot analysis
Data set [15] can be described thus: Hydrolytic stability in phosphate buffer and DMSO supplemented with 4% bovine serum albumin assessed as rate constant at pH 6.5 by HPLC analysis.
Data set [16] can be described thus: Half life in rat plasma. It counts as ADME, cell-free.
A short description of data set [17]: Half life in phosphate buffer and DMSO supplemented with 4% bovine serum albumin at pH 7.4 by HPLC analysis. Type of data set: physicochemical. The following applies: phosphate buffer and DMSO with 4% bovine serum albumin.
Data set [18] in a line: Half life in phosphate buffer and DMSO supplemented with 4% bovine serum albumin at pH 6.5 by HPLC analysis. It counts as physicochemical. The following applies: phosphate buffer and DMSO with 4% bovine serum albumin.
Data set [19] is described as follows: Hydrolytic stability in phosphate buffer and DMSO supplemented with 4% bovine serum albumin assessed as rate constant at pH 7.4 by HPLC analysis.
The nature of data set [20]: Drug degradation in rat plasma assessed as compound hydrolysis with first order rate constant. It counts as ADME, cell-free.
Data set [21] is described as follows: Drug degradation in rat plasma assessed as compound hydrolysis with zero order rate constant. It counts as ADME, cell-free.
Data set [22] is described as follows: Prodrug conversion in phosphate buffer at pH 6.8 and d6-DMSO (1:1) assessed as rate constant for release of active compound mimetics by kinetic time-course NMR method. Type of data set: ADME.
The nature of data set [23]: Half life in phosphate buffer at pH 6.8 and d6-DMSO (1:1) by kinetic time-course NMR method. It counts as physicochemical. The following applies: phosphate buffer and d6-DMSO (1:1).
Data set [24] in a line: Prodrug conversion in phosphate buffer at pH 7.4 and d6-DMSO (1:1) assessed as rate constant for release of active compound mimetics by kinetic time-course NMR method. It counts as ADME.
The nature of data set [25]: Prodrug conversion in phosphate buffer at pH 6.4 and d6-DMSO (1:1) assessed as rate constant for release of active compound mimetics by kinetic time-course NMR method. It counts as ADME.
Data set [26] in a line: Half life in phosphate buffer at pH 6.4 and d6-DMSO (1:1) by kinetic time-course NMR method. To be noted: phosphate buffer and d6-DMSO (1:1). Type of data set: physicochemical.
Data set [27] in a line: Half life in phosphate buffer at pH 7.4 and d6-DMSO (1:1) by kinetic time-course NMR method. The following applies: phosphate buffer and d6-DMSO (1:1). It counts as physicochemical.

Activity calls are given as the source filed them. No cut-off for these calls is given here.

Chain of ALK tyrosine kinase receptor (Homo sapiens) (Q9UM73 19-1620 limits assumed): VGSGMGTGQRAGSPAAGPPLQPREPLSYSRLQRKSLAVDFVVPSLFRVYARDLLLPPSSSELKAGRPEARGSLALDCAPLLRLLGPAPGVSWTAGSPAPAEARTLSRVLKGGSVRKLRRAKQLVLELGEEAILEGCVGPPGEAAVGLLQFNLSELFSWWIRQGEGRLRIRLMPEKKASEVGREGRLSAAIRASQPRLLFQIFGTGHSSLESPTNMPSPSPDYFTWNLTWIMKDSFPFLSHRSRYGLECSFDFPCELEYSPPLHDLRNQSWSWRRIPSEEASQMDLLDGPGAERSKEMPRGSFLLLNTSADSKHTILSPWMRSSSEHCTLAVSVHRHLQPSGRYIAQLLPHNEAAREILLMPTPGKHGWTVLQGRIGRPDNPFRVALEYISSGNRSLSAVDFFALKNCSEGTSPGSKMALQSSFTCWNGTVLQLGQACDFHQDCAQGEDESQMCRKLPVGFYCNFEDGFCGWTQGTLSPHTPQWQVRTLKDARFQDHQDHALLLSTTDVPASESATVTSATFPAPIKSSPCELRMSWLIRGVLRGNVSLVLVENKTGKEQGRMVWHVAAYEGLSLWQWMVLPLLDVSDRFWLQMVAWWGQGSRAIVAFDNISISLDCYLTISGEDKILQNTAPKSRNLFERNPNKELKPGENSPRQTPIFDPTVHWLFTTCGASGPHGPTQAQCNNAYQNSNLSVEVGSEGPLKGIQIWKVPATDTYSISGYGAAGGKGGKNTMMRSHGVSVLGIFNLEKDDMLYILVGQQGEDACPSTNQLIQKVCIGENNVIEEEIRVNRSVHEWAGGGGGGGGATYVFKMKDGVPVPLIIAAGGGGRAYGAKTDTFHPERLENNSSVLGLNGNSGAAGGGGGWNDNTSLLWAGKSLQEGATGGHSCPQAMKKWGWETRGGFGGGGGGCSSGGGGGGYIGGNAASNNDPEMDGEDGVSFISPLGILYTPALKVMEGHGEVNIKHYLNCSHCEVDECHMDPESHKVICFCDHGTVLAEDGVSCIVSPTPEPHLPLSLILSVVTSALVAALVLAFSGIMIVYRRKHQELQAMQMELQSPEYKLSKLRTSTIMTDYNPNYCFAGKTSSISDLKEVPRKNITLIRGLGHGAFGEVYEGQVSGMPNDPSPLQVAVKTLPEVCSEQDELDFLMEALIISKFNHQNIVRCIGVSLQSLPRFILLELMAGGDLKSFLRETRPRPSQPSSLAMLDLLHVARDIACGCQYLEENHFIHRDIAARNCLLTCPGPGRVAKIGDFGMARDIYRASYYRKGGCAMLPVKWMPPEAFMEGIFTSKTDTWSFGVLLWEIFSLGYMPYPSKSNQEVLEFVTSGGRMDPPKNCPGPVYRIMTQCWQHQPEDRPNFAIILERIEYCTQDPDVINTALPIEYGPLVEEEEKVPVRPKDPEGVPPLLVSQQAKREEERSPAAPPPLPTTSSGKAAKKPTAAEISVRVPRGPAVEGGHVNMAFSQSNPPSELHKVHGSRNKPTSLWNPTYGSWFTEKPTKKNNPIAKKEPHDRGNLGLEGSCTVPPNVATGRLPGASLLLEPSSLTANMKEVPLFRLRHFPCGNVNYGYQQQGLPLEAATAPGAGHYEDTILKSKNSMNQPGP

Turning to `CS(=O)(=O)N1CCN(Cc2cc3nc(-c4cccc5[nH]ncc45)nc(N4CCOCC4)c3s2)CC1` [PICTILISIB], the GI50 – broadly, the concentration at which growth is held to half of that of the control – with A549 [1] is 1.22 µM; in data set [9], 1.18 µM. In addition, the CI in the data set with A549 [2] worked out at 0.35; in [4], 0.37; in data set [5], 0.3; in data set [6] it was 0.52; with A549 [7], 0.72; in data set [8], 0.24. In addition, the figures for the CI in the data set on A549 [10] and in the data set with A549 [12] were 0.55 and 0.95, respectively. Further, the results for the D50 (in the data set on A549 [3]; in data set [11]) were 1.22 µM and 1.12 µM, respectively.

With `Cc1cc(Nc2ncc(Cl)c(Nc3ccccc3S(=O)(=O)C(C)C)n2)c(OC(C)C)cc1C1CCNCC1` [CERITINIB], the results for the GI50 (in the data set with A549 [1]; in data set [9]) were 0.845 µM and 0.565 µM, respectively. The results for the D50 (in the data set on A549 [3]; in [11]) were 0.85 µM and 0.57 µM, respectively. The inhibition result in data set [13] and in data set [14] was “Active” in each case.

As to `Cc1cc(Nc2ncc(Cl)c(Nc3ccccc3S(=O)(=O)C(C)C)n2)c(OC(C)C)cc1C1CCN(C(=O)OC(C)OC(=O)[C@@H](N)CC(=O)n2ncc3c(-c4nc(N5CCOCC5)c5sc(CN6CCN(S(C)(=O)=O)CC6)cc5n4)cccc32)CC1` (some centres not stated), the K in [15] stood at 0.02 h⁻¹; in [19], 0.036 h⁻¹; in data set [20], 0.018 min⁻¹. Moreover, the half-life (usually the time in which the quantity being followed falls by half) in data set [16] was 0.633 h; in data set [17], 19.3 h; in data set [18] it was 34.7 h.

For `Cc1cc(Nc2ncc(Cl)c(Nc3ccccc3S(=O)(=O)C(C)C)n2)c(OC(C)C)cc1C1CCN(C(=O)OC(C)OC(=O)C[C@H](N)C(=O)n2ncc3c(-c4nc(N5CCOCC5)c5sc(CN6CCN(S(C)(=O)=O)CC6)cc5n4)cccc32)CC1` (some centres not stated), the K in data set [15] was found to be 0.036 h⁻¹; in [21], 0.069 µM/s; in data set [19], 0.094 h⁻¹. For the same molecule, the half-life in [16] is 0.967 h; in data set [17] it was 7.4 h; in data set [18], 19.3 h.

For the molecule `CC(OC(=O)C[C@H](N)C(=O)n1ncc2cc(Br)ccc21)OC(=O)N1CCC(c2ccccc2)CC1` (some centres not stated), the K in [22] was found to be 0.84 h⁻¹; in data set [24], 1.37 h⁻¹; in data set [25], 0.22 h⁻¹. Further, the half-life in [23] was 0.7 h; in data set [26], 4.64 h; in [27] it was 0.39 h.

As to `Cc1cc(Nc2ncc(Cl)c(Nc3ccccc3S(=O)(=O)C(C)C)n2)c(OC(C)C)cc1C1CCN(C(=O)OC(C)OC(=O)CC(N)CC(=O)n2ncc3c(-c4nc(N5CCOCC5)c5sc(CN6CCN(S(C)(=O)=O)CC6)cc5n4)cccc32)CC1` (configuration not stated), the K in data set [15] was determined as 0.058 h⁻¹; in data set [19], 0.091 h⁻¹; in data set [20], 0.01 min⁻¹. In addition, the half-life in data set [16] was 1.15 h; in data set [17], 7.6 h; in [18] it was 12 h.
